Each structure is given as a SMILES string.

The target of the assay is MAGL (Mus musculus (Mouse), UniProt O35678). The assay is described as follows: Mouse brain proteomes from inhibitor treated mice (oral gavage, sacrificed 4 h after administration, ABPP analysis). Particulars: 5 mg/kg oral gavage.
Chain of MAGL (O35678 whole entry): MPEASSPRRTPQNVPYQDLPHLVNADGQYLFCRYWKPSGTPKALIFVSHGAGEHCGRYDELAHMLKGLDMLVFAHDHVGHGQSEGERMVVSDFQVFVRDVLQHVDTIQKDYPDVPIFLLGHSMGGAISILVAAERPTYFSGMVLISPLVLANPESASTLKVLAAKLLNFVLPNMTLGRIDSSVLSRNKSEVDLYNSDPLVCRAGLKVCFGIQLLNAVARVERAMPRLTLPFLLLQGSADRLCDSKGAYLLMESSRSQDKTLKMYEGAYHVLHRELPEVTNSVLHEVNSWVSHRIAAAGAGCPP
Method: Preparation of Mouse Brain Proteomes from Inhibitor Treated Mice.
Inhibitors were administered to wild-type C57Bl/6J by oral gavage in a vehicle of polyethylene glycol.
As to `Cc1ccc(Oc2cccc(CN3CCN(C(=O)n4ccc(C(=O)O)n4)CC3)c2)cc1` [Example 251, 1-(4-(3-(p-tolyloxy)benzyl)piperazine-1-carbonyl)-1H-pyrazole-3-carboxylic acid], the “MAGL % inh. 5 mg/kg (mouse)” value is “D (% inhibition is greater than or equal to 0% and less than 25%)”.

In the case of `C[C@@H]1C[C@H](N(C)Cc2cccc(C(F)(F)F)c2)CCN1C(=O)n1ccc(C(N)=O)n1` [Example 257, 1-((2R,4R)-2-methyl-4-(methyl(3-(trifluoromethyl)benzyl)amino)piperidine-1-carbonyl)-1H-pyrazole-3-carboxamide], the “MAGL % inh. 5 mg/kg (mouse)” value is listed as “A (% inhibition is greater than or equal to 75%)”.

On to `O=C(O)c1ccn(C(=O)N2C[C@H]3C[C@H](Oc4cc(Cl)cc(Cl)c4)C[C@H]3C2)n1` [Example 230, 1-(trans-5-(3,5-dichlorophenoxy)octahydrocyclo-penta[c]pyrrole-2-carbonyl)-1H-pyrazole-3-carboxylic acid], for which the “MAGL % inh. 5 mg/kg (mouse)” value is “D (% inhibition is greater than or equal to 0% and less than 25%)”.

Turning to `CN(Cc1cc(C(F)(F)F)ccc1N1CCCC1)C1(C)CCN(C(=O)n2ccc(C(=O)O)n2)CC1` [Example 384, 1-(4-methyl-4-(methyl(2-(pyrrolidin-1-yl)-5-(trifluoromethyl)benzyl)amino)piper-idine-1-carbonyl)-1H-pyrazole-3-carboxylic acid], the “MAGL % inh. 5 mg/kg (mouse)” value was “D (% inhibition is greater than or equal to 0% and less than 25%)”.

Turning to `CN(Cc1cccc(C(F)(F)F)c1N1CCCC1)C1(C)CCN(C(=O)n2ccc(C(=O)O)n2)CC1` [Example 382, 1-(4-methyl-4-(methyl(2-(pyrrolidin-1-yl)-3-(trifluoromethyl)benzyl)amino)piper-idine-1-carbonyl)-1H-pyrazole-3-carboxylic acid], the “MAGL % inh. 5 mg/kg (mouse)” value is “D (% inhibition is greater than or equal to 0% and less than 25%)”.

Consider `C[C@@H]1CN(Cc2ccc(C(F)(F)F)cc2N2CCCC2)CCN1C(=O)n1ccc(C(=O)O)n1` [Example 327, (R)-1-(2-methyl-4-(2-(pyrrolidin-1-yl)-4-(trifluoromethyl)benzyl)piperazine-1-carbonyl)-1H-pyrazole-3-carboxylic acid], for which the “MAGL % inh. 5 mg/kg (mouse)” value is “D (% inhibition is greater than or equal to 0% and less than 25%)”.

For `O=C(O)c1nn(C(=O)N2CCC3(CCN(Cc4cc(Cl)cc(C(F)(F)F)c4)C3)CC2)cc1Cl` [Example 388, 4-chloro-1-(2-(3-chloro-5-(trifluoromethyl)benzyl)-2,8-diazaspiro[4.5]decane-8-carbonyl)-1H-pyrazole-3-carboxylic acid], the “MAGL % inh. 5 mg/kg (mouse)” value was “D (% inhibition is greater than or equal to 0% and less than 25%)”.

In the case of `C[C@H]1CC[C@H](C)N1c1cc(C(F)(F)F)ccc1CN1CCN(C(=O)n2ccc(C(=O)O)n2)CC1` [Example 360, 1-(4-(2-((2S,5S)-2,5-dimethylpyrrolidin-1-yl)-4-(trifluoromethyl)benzyl)piperazine-1-carbonyl)-1H-pyrazole-3-carboxylic acid], the “MAGL % inh. 5 mg/kg (mouse)” value was “D (% inhibition is greater than or equal to 0% and less than 25%)”.

As for `O=C(O)c1ccn(C(=O)N2C[C@H]3C[C@H](Oc4cccc(-c5cccnc5)c4)C[C@H]3C2)n1` [Example 241, 1-(trans-5-(3-(pyridin-3-yl)phenoxy)octa-hydrocyclopenta-[c]pyrrole-2-carbonyl)-1H-pyrazole-3-carboxylic acid], the “MAGL % inh. 5 mg/kg (mouse)” value is “D (% inhibition is greater than or equal to 0% and less than 25%)”.

`C[C@@H]1CC[C@@H](C)N1c1cc(C(F)(F)F)ccc1CN1CCN(C(=O)n2ccc(C(=O)O)n2)CC1` [Example 359, 1-(4-(2-((2R,5R)-2,5-dimethylpyrrolidin-1-yl)-4-(trifluoromethyl)benzyl)piperazine-1-carbonyl)-1H-pyrazole-3-carboxylic acid]: the “MAGL % inh. 5 mg/kg (mouse)” value is “D (% inhibition is greater than or equal to 0% and less than 25%)”.

In the case of `O=C(O)c1nn(C(=O)N2CCC3(CCN(Cc4cccc(Cl)c4C(F)(F)F)C3)CC2)cc1Cl` [Example 26, 4-Chloro-1-(2-(3-chloro-2-(trifluoromethyl)benzyl)-2,8-diazaspiro[4.5]decane-8-carbonyl)-1H-pyrazole-3-carboxylic Acid], the “MAGL % inh. 5 mg/kg (mouse)” value was “D (% inhibition is greater than or equal to 0% and less than 25%)”.

Regarding `O=C(O)c1ccn(C(=O)N2CCC(Oc3cc(N4CCCC4)cc(C(F)(F)F)c3)CC2)n1` [Example 308, 1-(4-(3-(pyrrolidin-1-yl)-5-(trifluoromethyl)phenoxy)piperidine-1-carbonyl)-1H-pyrazole-3-carboxylic acid], the “MAGL % inh. 5 mg/kg (mouse)” value was “D (% inhibition is greater than or equal to 0% and less than 25%)”.

As for `O=C(O)c1ccn(C(=O)N2CCC3(CCN(Cc4cc(Cl)cc(Cl)c4Cl)C3)CC2)n1` [Example 337, 1-(2-(2,3,5-trichlorobenzyl)-2,8-diazaspiro[4.5]decane-8-carbonyl)-1H-pyrazole-3-carboxylic acid], the “MAGL % inh. 5 mg/kg (mouse)” value was “D (% inhibition is greater than or equal to 0% and less than 25%)”.

Turning to `CC(C)c1cccc(O[C@H]2C[C@@H]3CN(C(=O)n4ccc(C(=O)O)n4)C[C@@H]3C2)c1` [Example 220, 1-(trans-5-(3-isopropylphenoxy)ocatahydrocyclo-penta[c]pyrrole-2-carbonyl)-1H-pyrazole-3-carboxylic acid], the “MAGL % inh. 5 mg/kg (mouse)” value is “C (% inhibition is greater than or equal to 25% and less than 50%)”.

Consider `NC(=O)c1ccn(C(=O)N2CC3CN(Cc4ccc(C5(C(=O)O)CCOCC5)cc4C(F)(F)F)CC3C2)n1` (centres unmarked) [Example 35, 4-(4-((5-(3-carbamoyl-1H-pyrazole-1-carbonyl)hexahydropyrrolo[3,4-c]pyrrol-2(1H)-yl)methyl)-3-(trifluoromethyl)phenyl)tetrahydro-2H-pyran-4-carboxylic acid], for which the “MAGL % inh. 5 mg/kg (mouse)” value was “D (% inhibition is greater than or equal to 0% and less than 25%)”.

`C[C@H]1CN(Cc2cc(F)cc(Oc3ccc(Cl)cc3)c2)CCN1C(=O)n1ccc(C(=O)O)n1` [Example 347, (S)-1-(4-(3-(4-chlorophenoxy)-5-fluorobenzyl)-2-methylpiperazine-1-carbonyl)-1H-pyrazole-3-carboxylic acid]: the “MAGL % inh. 5 mg/kg (mouse)” value was “D (% inhibition is greater than or equal to 0% and less than 25%)”.

As for `C[C@H]1CN(Cc2cccc(Oc3ccc(Cl)cc3)c2)CCN1C(=O)n1ccc(C(=O)O)n1` [Example 311, (S)-1-(4-(3-(4-chlorophenoxy)benzyl)-2-methylpiperazine-1-carbonyl)-1H-pyrazole-3-carboxylic acid], the “MAGL % inh. 5 mg/kg (mouse)” value was “D (% inhibition is greater than or equal to 0% and less than 25%)”.

`O=C(O)c1ccn(C(=O)N2CCC(Oc3ccc(C(F)(F)F)cc3N3CCCC3)CC2)n1` [Example 307, 1-(4-(2-(pyrrolidin-1-yl)-4-(trifluoromethyl)phenoxy)piperidine-1-carbonyl)-1H-pyrazole-3-carboxylic acid]: the “MAGL % inh. 5 mg/kg (mouse)” value is “D (% inhibition is greater than or equal to 0% and less than 25%)”.

`C[C@@H]1CN(Cc2ccc(C(F)(F)F)cc2N2C3CCC2COC3)CCN1C(=O)n1ccc(C(=O)O)n1` [Example 393, 1-((2R)-4-(2-(3-oxa-8-azabicyclo[3.2.1]octan-8-yl)-4-(trifluoromethyl)benzyl)-2-methylpiperazine-1-carbonyl)-1H-pyrazole-3-carboxylic acid]: the “MAGL % inh. 5 mg/kg (mouse)” value is “D (% inhibition is greater than or equal to 0% and less than 25%)”.

Take `C[C@@H]1CN(Cc2ccc(-c3ccccc3)cc2Cl)CCN1C(=O)n1ccc(C(=O)O)n1` [Example 291, (R)-1-(4-((3-chloro-[1,1′-biphenyl]-4-yl)methyl)-2-methylpiperazine-1-carbonyl)-1H-pyrazole-3-carboxylic acid]: the “MAGL % inh. 5 mg/kg (mouse)” value was “C (% inhibition is greater than or equal to 25% and less than 50%)”.

For `Cc1cn(C(=O)N2C[C@H]3C[C@H](OCc4cc(F)cc(Cl)c4)C[C@H]3C2)nc1C(=O)O` [Example 252, 1-(trans-5-((3-chloro-5-fluorobenzyl)oxy)octahydrocyclo-penta[c]pyrrole-2-carbonyl)-4-methyl-1H-pyrazole-3-carboxylic acid], the “MAGL % inh. 5 mg/kg (mouse)” value was “D (% inhibition is greater than or equal to 0% and less than 25%)”.

Turning to `CN(Cc1ccc(C(F)(F)F)c(N2CCCC2)c1)C1(C)CCN(C(=O)n2ccc(C(=O)O)n2)CC1` [Example 385, 1-(4-methyl-4-(methyl(3-(pyrrolidin-1-yl)-4-(trifluoromethyl)benzyl)amino)piper-idine-1-carbonyl)-1H-pyrazole-3-carboxylic acid], the “MAGL % inh. 5 mg/kg (mouse)” value is “D (% inhibition is greater than or equal to 0% and less than 25%)”.

With `C[C@H]1CN(Cc2ccc(C(F)(F)F)cc2N2CCCC2)CCN1C(=O)n1ccc(C(=O)O)n1` [Example 328, (S)-1-(2-methyl-4-(2-(pyrrolidin-1-yl)-4-(trifluoromethyl)benzyl)piperazine-1-carbonyl)-1H-pyrazole-3-carboxylic acid], the “MAGL % inh. 5 mg/kg (mouse)” value was “D (% inhibition is greater than or equal to 0% and less than 25%)”.

Regarding `Cc1cc(-c2ccccc2)ccc1CN1CCN(C(=O)n2ccc(C(=O)O)n2)[C@H](C)C1` [Example 245, (R)-1-(2-methyl-4-((3-methyl-[1,1′-biphenyl]-4-yl)methyl)piperazine-1-carbonyl)-1H-pyrazole-3-carboxylic acid], the “MAGL % inh. 5 mg/kg (mouse)” value is “D (% inhibition is greater than or equal to 0% and less than 25%)”.

For `CN(Cc1cc(N2CCCC2)cc(C(F)(F)F)c1)C1(C)CCN(C(=O)n2ccc(C(=O)O)n2)CC1` [Example 381, 1-(4-methyl-4-(methyl(3-(pyrrolidin-1-yl)-5-(trifluoromethyl)benzyl)amino)piper-idine-1-carbonyl)-1H-pyrazole-3-carboxylic acid], the “MAGL % inh. 5 mg/kg (mouse)” value is “D (% inhibition is greater than or equal to 0% and less than 25%)”.

On to `C[C@@H]1C[C@@H](N(C)Cc2cccc(C(F)(F)F)c2)CCN1C(=O)n1ccc(C(N)=O)n1` [Example 260, 1-((2R,4S)-2-methyl-4-(methyl(3-(trifluoromethyl)benzyl)amino)piperidine-1-carbonyl)-1H-pyrazole-3-carboxamide], for which the “MAGL % inh. 5 mg/kg (mouse)” value is on record as “A (% inhibition is greater than or equal to 75%)”.

The values are drawn from patent publication US11655217B2, “Pyrazole MAGL inhibitors” (H. Lundbeck A/S, priority 2017, dated 2023).
